According to US20200224136A1, “INTESTINE-CHIP: DIFFERENTIAL GENE EXPRESSION MODEL” (priority 2019, published 2020):

What was measured:
GLUTag Cells = conditions: 250 uM, 36 minutes; Active GLP-1 (ver. 2) Assay Kit (Mesoscale Discovery); cited from earlier work
[1] = tested on: Small Intestinal Organoids; conditions: 30 uM DCA, 2 hours; GLP-1 (Active) assay; cited from earlier work
Ileum-Chip [2] = assay: Intestinal barrier function of Ileum-Chip under TNF-α; format: cell-based, human; conditions: vascular exposure, 100 U/ml (~2 ng/ml)
Procedure: As one example, to evaluate the integrity of the intestinal barrier 3 kDa Cascade Blue dextran (Sigma, D7132) was added to the epithelial compartment of the Duodenum-Chip at 0.1 mg/ml on the day of connecting a microfluidic device to flow, e.g., see exemplary timelines. Effluents of the endothelial compartment were sampled 3 hours after the addition of a dye, up to 24 hours, up to 48 hours, up to 72 hours, or at 48 hour intervals until the end of the assay, in order to determine the concentration of dye that has diffused through the membrane.
The apparent paracellular permeability (Papp) was calculated based on a standard curve and using the following formula: […]
(§1) TNFα induces increased membrane expression of I-CAM1 and MadCAM1 in intestinal microvascula endothelium.

Ileum-Chip [3] = assay: TNF-α induced inflammation in Ileum-Chip: chemokine release (ELISA) and I-CAM1/MadCAM1 expression; format: cell-based, human; design: Apical CXCL11 (1-TAC) / Apical CCL20 (MIP-3 alpha) / Basal CCL25 (TECK) / Basal CXCL8 (IL-8) / Basal CXCLIO (IP-10) / Basal CXCL11 (1-TAC) / Basal CCL20 (MIP-3 alpha) / Apical CCL25 (TECK) / Apical CXCL8 (IL-8) / Apical CXCLIO (IP-10): unit not given here
From the text: as §1
(§2) Identification of MadCAM1 and characterization of microvascular response to inflammation in Ileum-Chip. Inflammation-Induced Expression of I-CAM1 and MadCAM1 in Ileum-Chip. Read-outs: mRNA expression of vascular adhesion molecules (I-CAM1, MadCAM1); Immunofluorescent detection of I-CAM1 and MadCAM1; Epithelial and vascular release of inflammatory chemokines using ELISA (Meso Scale Discovery). FIG. 13. FIG. 14.
Summary of Evaluation of Microvascular Function in Ileum-Chip.

[4] = tested on: intestinal microvascular endothelium; assay: TNF-α stimulation of microvasculature alone: chemokine release; format: cell-based, human; design: unit not given here; conditions: TNF-α 100 U/ml, n = 1, 4 chips/condition
From the text: as §2

[5] = tested on: Mixed primary cultures (Colon); conditions: 10 mM, 2-4 hours; Active GLP-1 ELISA-kit (Millipore); cited from earlier work
[6] = tested on: Endoscopic duodenal biopsies; conditions: 300 mM, Intraduodenal Glucose Infusion, 30 min; GLP-1 (Active) ELISA Kit (Millipore); cited from earlier work
[7] = tested on: Mixed primary cultures (upper half of SI); conditions: 10 mM, 2-4 hours; Active GLP-1 ELISA-kit (Millipore); cited from earlier work
[8] = TNF-α 100 U/ml, n = 1, 4 chips/condition

## CCCCCCCC/C=C\CCCCCCCC(=O)O [Oleic Acid]
GLUTag Cells
  GLP-1 Concentration (fold increase): 4-fold increase

## C[C@H](CCC(=O)O)[C@H]1CC[C@H]2[C@@H]3CC[C@@H]4C[C@H](O)CC[C@]4(C)[C@H]3C[C@H](O)[C@]12C [DCA]
[1]
  GLP-1 Concentration (fold increase): 2.5-fold increase

## TNF-α
Ileum-Chip [2]
  effect on intestinal barrier function: does not affect
Ileum-Chip [3]; 100 U/ml
  membrane expression of I-CAM1 and MadCAM1 in intestinal microvascular endothelium: increased
Ileum-Chip [3]; [8]
  Apical CCL20 (MIP-3 alpha): 170.92 ± 36.8
  Apical CCL25 (TECK): 17.11 ± 9.2
  Apical CXCL8 (IL-8): 16.30 ± 5.9
  Apical CXCL11 (1-TAC): 302.01 ± 111.8
  Apical CXCLIO (IP-10): 6.34 ± 2.3
  Basal CCL20 (MIP-3 alpha): 93.93 ± 18.3
  Basal CCL25 (TECK): 117.91 ± 16.1
  Basal CXCL8 (IL-8): 1868.99 ± 198.7
  Basal CXCL11 (1-TAC): 26.00 ± 9.1
  Basal CXCLIO (IP-10): 502.04 ± 287.1
[4]
  Apical CCL20 (MIP-3 alpha): 0.74 ±0.9
  Apical CXCL8 (IL-8): 105.5 ± 74.2
  Apical CXCL11 (1-TAC): 0.53 ± 1.0
  Apical CXCLIO (IP-10): 0.19 ± 0.1
  Basal CCL20 (MIP-3 alpha): 3.51 ± 2.8
  Basal CXCL8 (IL-8): 1835.44 ± 282.8
  Basal CXCL11 (1-TAC): 1.74 ± 1.4
  Basal CXCLIO (IP-10): 35.22 ± 20.1

## OC[C@H]1OC(O)[C@H](O)[C@@H](O)[C@@H]1O (stereo partly shown) [Glucose]
[5]
  GLP-1 Concentration (fold increase), Colon: 10-fold increase
[6]
  GLP-1 Concentration (fold increase): 3-fold increase
[7]
  GLP-1 Concentration (fold increase), SI: (Colon), 2-fold
